From US10538555B2, “Macrocyclic inhibitors of the PD-1/PD-L1 and CD80(B7-1)/PD-L1 protein/protein interactions” (BRISTOL-MYERS SQUIBB COMPANY, priority 2014, dated 2020)
Where a SMILES comes first, the peptide text is derived from it. Bridges are numbered along the chain shown (N, C = ends). [ ]: non-standard residue; d: D form. Trp(βS-Me) = C[C@@H](c1c[nH]c2ccccc12)[C@H](N)C(=O)O; Phe(3,4,5-F3) = N[C@@H](Cc1cc(F)c(F)c(F)c1)C(=O)O; NMePhe(4-F) = CN[C@@H](Cc1ccc(F)cc1)C(=O)O; Hyp = O=C(O)[C@@H]1C[C@@H](O)CN1; NMeF = CN[C@@H](Cc1ccccc1)C(=O)O; dHyp = O=C(O)[C@H]1C[C@H](O)CN1; NMeNle = CCCC[C@H](NC)C(=O)O; dPip = O=C(O)[C@H]1CCCCN1; NMeA = CN[C@@H](C)C(=O)O; Dab = NCC[C@H](N)C(=O)O

molecular target: T1, Human PD-L1/PD-1 (Homo sapiens, UniProt Q9NZQ7); assay: HTRF Human PD-L1/PD-1 binding assay (PD-1-Ig/PD-L1-His); conditions: PD-L1-His 10 nM, PD-1-Ig 20 nM; class symbol; read-out: HTRF Human PD-L1/PD-1 Binding Assay IC50 Range
T1 construct: TVMV protease cleavage site (C); made in house; host or cells: HEK293T cells
Outline: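 HTRF competition using HEK293T-expressed human PD-1(25-167)-Ig at 20 nM and PD-L1(18-239)-His at 10 nM, compound incubated first with PD-L1 for 15 min, then with PD-1 for 15 min. Signal read as 665/620 nm ratio 30 min after adding Eu anti-Ig and APC anti-His antibodies.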

T1 sequence (Q9NZQ7 with tags, fused parts or gaps): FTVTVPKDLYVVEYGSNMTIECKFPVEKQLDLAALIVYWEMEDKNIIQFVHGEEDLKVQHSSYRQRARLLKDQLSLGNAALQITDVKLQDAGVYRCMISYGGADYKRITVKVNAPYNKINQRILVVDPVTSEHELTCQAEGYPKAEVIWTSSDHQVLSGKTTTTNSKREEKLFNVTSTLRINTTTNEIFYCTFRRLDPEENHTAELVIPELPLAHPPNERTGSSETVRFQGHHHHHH

Compound	IC50
CCCC[C@H]1C(=O)N(C)[C@@H](CCCC)C(=O)N[C@@H](CCCNC(=N)N)C(=O)N[C@H](C(=O)NCC(N)=O)CSCC(=O)N[C@@H](Cc2ccc(O)cc2)C(=O)N(C)[C@@H](C)C(=O)N[C@@H](CC(N)=O)C(=O)N2CCC[C@H]2C(=O)N[C@@H](CC(N)=O)C(=O)N[C@@H](CC(C)C)C(=O)N2C[C@H](O)C[C@H]2C(=O)N[C@@H]([C@@H](C)c2c[nH]c3ccccc23)C(=O)N[C@@H](CO)C(=O)N[C@@H](Cc2c[nH]c3ccccc23)C(=O)N1C [Example 10534] ({CH2CO}-Y[NMeA]NPNL[Hyp][Trp(βS-Me)]SW[NMeNle][NMeNle]RCG-NH2; thioether N-14)	1 to 9.9 nM
CCCC[C@H]1C(=O)N2CCC[C@@H]2C(=O)N[C@@H](CC(=O)O)C(=O)N[C@@H](C(C)C)C(=O)N(C)[C@@H](Cc2ccccc2)C(=O)N[C@@H](Cc2ccc(O)cc2)C(=O)N2CCC[C@@H]2C(=O)N[C@@H]([C@@H](C)c2c[nH]c3ccccc23)C(=O)N[C@@H](Cc2ccc(O)cc2)C(=O)N[C@@H](CC(C)C)C(=O)N[C@H](C(=O)NCC(N)=O)CSCC(=O)N[C@@H](Cc2ccccc2)C(=O)N(C)[C@@H](Cc2ccccc2)C(=O)N1C [Example 10535] ({CH2CO}-F[NMeF][NMeNle][dP]DV[NMeF]Y[dP][Trp(βS-Me)]YLCG-NH2; thioether N-13)	1 to 9.9 nM
CCCC[C@H]1C(=O)N[C@@H](CC(N)=O)C(=O)N2CCC[C@H]2C(=O)N[C@@H](Cc2c[nH]cn2)C(=O)N[C@@H](CCC(N)=O)C(=O)N2C[C@H](O)C[C@H]2C(=O)N[C@@H]([C@@H](C)c2c[nH]c3ccccc23)C(=O)N[C@@H](CO)C(=O)N[C@@H](Cc2c[nH]c3ccccc23)C(=O)N(C)[C@@H](C)C(=O)N(C)[C@@H](C)C(=O)N[C@@H](CC(C)C)C(=O)N[C@H](C(=O)NCC(N)=O)CSCC(=O)N[C@@H](Cc2ccc(O)cc2)C(=O)N1C [Example 10536] ({CH2CO}-Y[NMeNle]NPHQ[Hyp][Trp(βS-Me)]SW[NMeA][NMeA]LCG-NH2; thioether N-14)	1000 to 10000 nM
CCCC[C@H]1C(=O)N[C@@H](CC(=O)O)C(=O)N2CCC[C@H]2C(=O)N[C@@H](Cc2c[nH]cn2)C(=O)N[C@@H](CCC(N)=O)C(=O)N2C[C@H](O)C[C@H]2C(=O)N[C@@H]([C@@H](C)c2c[nH]c3ccccc23)C(=O)N[C@@H](CO)C(=O)N[C@@H](Cc2c[nH]c3ccccc23)C(=O)N(C)[C@@H](C)C(=O)N(C)[C@@H](C)C(=O)N[C@@H](C)C(=O)N[C@H](C(=O)NCC(N)=O)CSCC(=O)N[C@@H](Cc2ccc(O)cc2)C(=O)N1C [Example 10539] ({CH2CO}-Y[NMeNle]DPHQ[Hyp][Trp(βS-Me)]SW[NMeA][NMeA]ACG-NH2; thioether N-14)	1000 to 10000 nM
CCCC[C@H]1C(=O)N[C@@H](CC(N)=O)C(=O)N2CCC[C@H]2C(=O)N[C@@H](Cc2c[nH]cn2)C(=O)N[C@@H](CCC(=O)O)C(=O)N2C[C@H](O)C[C@H]2C(=O)N[C@@H]([C@@H](C)c2c[nH]c3ccccc23)C(=O)N[C@@H](CCN)C(=O)N[C@@H](Cc2c[nH]c3ccccc23)C(=O)N(C)[C@@H](C)C(=O)N(C)[C@@H](C)C(=O)N[C@@H](CC(C)C)C(=O)N[C@H](C(=O)NCC(N)=O)CSCC(=O)N[C@@H](Cc2ccc(O)cc2)C(=O)N1C [Example 10540] ({CH2CO}-Y[NMeNle]NPHE[Hyp][Trp(βS-Me)][Dab]W[NMeA][NMeA]LCG-NH2; thioether N-14)	1000 to 10000 nM
CC(C)C[C@@H]1NC(=O)[C@H](Cc2ccc(O)cc2)NC(=O)[C@H](Cc2c[nH]c3ccccc23)NC(=O)[C@H]2CCCCN2C(=O)[C@H](Cc2ccc(O)cc2)NC(=O)[C@H](Cc2ccccc2)N(C)C(=O)[C@H](C(C)C)NC(=O)[C@H](CC(=O)O)NC(=O)[C@H]2CCCN2C(=O)[C@H](C)N(C)C(=O)[C@H](Cc2ccc(F)cc2)N(C)C(=O)[C@H](Cc2cc(F)c(F)c(F)c2)NC(=O)CSC[C@@H](C(=O)NCC(N)=O)NC1=O [Example 10542] ({CH2CO}-[Phe(3,4,5-F3)][NMePhe(4-F)][NMeA][dP]DV[NMeF]Y[dPip]WYLCG-NH2; thioether N-13)	1 to 9.9 nM

More lines, now with the values ahead:

IC50	Compound
1000 to 10000 nM	CCCC[C@H]1C(=O)N[C@@H](CC(=O)O)C(=O)N2CCC[C@H]2C(=O)N[C@@H](Cc2c[nH]cn2)C(=O)N[C@@H](CCC(N)=O)C(=O)N2C[C@H](O)C[C@H]2C(=O)N[C@@H]([C@@H](C)c2c[nH]c3ccccc23)C(=O)N[C@@H](CO)C(=O)N[C@@H](Cc2c[nH]c3ccccc23)C(=O)N(C)[C@@H](C)C(=O)N(C)[C@@H](C)C(=O)N[C@@H](CCC(=O)O)C(=O)N[C@H](C(=O)NCC(N)=O)CSCC(=O)N[C@@H](Cc2ccc(O)cc2)C(=O)N1C [Example 10544] ({CH2CO}-Y[NMeNle]DPHQ[Hyp][Trp(βS-Me)]SW[NMeA][NMeA]ECG-NH2; thioether N-14)
1 to 9.9 nM	CCCC[C@H]1C(=O)N2C[C@@H](O)C[C@@H]2C(=O)N[C@@H](CC(=O)O)C(=O)N[C@@H](C(C)C)C(=O)N(C)[C@@H](Cc2ccccc2)C(=O)N[C@@H](Cc2ccc(O)cc2)C(=O)N2CCC[C@@H]2C(=O)N[C@@H]([C@@H](C)c2c[nH]c3ccccc23)C(=O)N[C@@H](Cc2ccc(O)cc2)C(=O)N[C@@H](CC(C)C)C(=O)N[C@H](C(=O)NCC(N)=O)CSCC(=O)N[C@@H](Cc2cc(F)c(F)c(F)c2)C(=O)N(C)[C@@H](Cc2ccccc2)C(=O)N1C [Example 10551] ({CH2CO}-[Phe(3,4,5-F3)][NMeF][NMeNle][dHyp]DV[NMeF]Y[dP][Trp(βS-Me)]YLCG-NH2; thioether N-13)
1 to 9.9 nM	CCCC[C@H]1C(=O)N(C)[C@@H](CCCC)C(=O)N[C@@H](CCC(=O)O)C(=O)N[C@H](C(=O)NCC(N)=O)CSCC(=O)N[C@@H](Cc2ccc(O)cc2)C(=O)N(C)[C@@H](C)C(=O)N[C@@H](CC(=O)O)C(=O)N2CCC[C@H]2C(=O)N[C@@H](Cc2c[nH]cn2)C(=O)N[C@@H](CCC(N)=O)C(=O)N2C[C@H](O)C[C@H]2C(=O)N[C@@H]([C@@H](C)c2c[nH]c3ccccc23)C(=O)N[C@@H](CO)C(=O)N[C@@H](Cc2c[nH]c3ccccc23)C(=O)N1C [Example 10552] ({CH2CO}-Y[NMeA]DPHQ[Hyp][Trp(βS-Me)]SW[NMeNle][NMeNle]ECG-NH2; thioether N-14)
1 to 9.9 nM	CCCC[C@H]1C(=O)N(C)[C@@H](CCCC)C(=O)N[C@@H](C)C(=O)N[C@H](C(=O)NCC(N)=O)CSCC(=O)N[C@@H](Cc2ccc(O)cc2)C(=O)N(C)[C@@H](C)C(=O)N[C@@H](CC(=O)O)C(=O)N2CCC[C@H]2C(=O)N[C@@H](Cc2c[nH]cn2)C(=O)N[C@@H](CCC(N)=O)C(=O)N2C[C@H](O)C[C@H]2C(=O)N[C@@H]([C@@H](C)c2c[nH]c3ccccc23)C(=O)N[C@@H](CO)C(=O)N[C@@H](Cc2c[nH]c3ccccc23)C(=O)N1C [Example 10553] ({CH2CO}-Y[NMeA]DPHQ[Hyp][Trp(βS-Me)]SW[NMeNle][NMeNle]ACG-NH2; thioether N-14)
1 to 9.9 nM	CCCC[C@H]1C(=O)N(C)[C@@H](CCCC)C(=O)N[C@@H](CC(C)C)C(=O)N[C@H](C(=O)NCC(N)=O)CSCC(=O)N[C@@H](Cc2ccc(O)cc2)C(=O)N(C)[C@@H](C)C(=O)N[C@@H](CC(N)=O)C(=O)N2CCC[C@H]2C(=O)N[C@@H](Cc2c[nH]cn2)C(=O)N[C@@H](CCC(N)=O)C(=O)N2C[C@H](O)C[C@H]2C(=O)N[C@@H]([C@@H](C)c2c[nH]c3ccccc23)C(=O)N[C@@H](CO)C(=O)N[C@@H](Cc2c[nH]c3ccccc23)C(=O)N1C [Example 10554] ({CH2CO}-Y[NMeA]NPHQ[Hyp][Trp(βS-Me)]SW[NMeNle][NMeNle]LCG-NH2; thioether N-14)
1 to 9.9 nM	CCCC[C@H]1C(=O)N(C)[C@@H](CCCC)C(=O)N[C@@H](CC(C)C)C(=O)N[C@H](C(=O)NCC(N)=O)CSCC(=O)N[C@@H](Cc2ccc(O)cc2)C(=O)N(C)[C@@H](C)C(=O)N[C@@H](CC(N)=O)C(=O)N2CCC[C@H]2C(=O)N[C@@H](Cc2c[nH]cn2)C(=O)N[C@@H](CCC(=O)O)C(=O)N2C[C@H](O)C[C@H]2C(=O)N[C@@H]([C@@H](C)c2c[nH]c3ccccc23)C(=O)N[C@@H](CCN)C(=O)N[C@@H](Cc2c[nH]c3ccccc23)C(=O)N1C [Example 10555] ({CH2CO}-Y[NMeA]NPHE[Hyp][Trp(βS-Me)][Dab]W[NMeNle][NMeNle]LCG-NH2; thioether N-14)
1 to 9.9 nM	CCCC[C@H]1C(=O)N2C[C@@H](O)C[C@@H]2C(=O)N[C@@H](CC(=O)O)C(=O)N[C@@H](C(C)C)C(=O)N(C)[C@@H](Cc2ccccc2)C(=O)N[C@@H](CCC(=O)O)C(=O)N2CCCC[C@@H]2C(=O)N[C@@H](Cc2c[nH]c3ccccc23)C(=O)N[C@@H](Cc2ccc(O)cc2)C(=O)N[C@@H](CC(C)C)C(=O)N[C@H](C(=O)NCC(N)=O)CSCC(=O)N[C@@H](Cc2cc(F)c(F)c(F)c2)C(=O)N(C)[C@@H](Cc2ccc(F)cc2)C(=O)N1C [Example 10556] ({CH2CO}-[Phe(3,4,5-F3)][NMePhe(4-F)][NMeNle][dHyp]DV[NMeF]E[dPip]WYLCG-NH2; thioether N-13)
1 to 9.9 nM	CCCC[C@H]1C(=O)N2C[C@@H](O)C[C@@H]2C(=O)N[C@@H](CC(=O)O)C(=O)N[C@@H](C(C)C)C(=O)N(C)[C@@H](Cc2ccccc2)C(=O)N[C@@H](CCC(=O)O)C(=O)N2CCCC[C@@H]2C(=O)N[C@@H](Cc2c[nH]c3ccccc23)C(=O)N[C@@H](Cc2ccc(O)cc2)C(=O)N[C@@H](CO)C(=O)N[C@H](C(=O)NCC(N)=O)CSCC(=O)N[C@@H](Cc2cc(F)c(F)c(F)c2)C(=O)N(C)[C@@H](Cc2ccc(F)cc2)C(=O)N1C [Example 10557] ({CH2CO}-[Phe(3,4,5-F3)][NMePhe(4-F)][NMeNle][dHyp]DV[NMeF]E[dPip]WYSCG-NH2; thioether N-13)

same assay, conditions: PD-L1-His 10 nM, PD-1-Ig 20 nM; read-out: HTRF Human PD-L1/PD-1 Binding Assay IC50

IC50	Compound
10 nM	CC(C)C[C@@H]1NC(=O)[C@H](Cc2ccc(O)cc2)NC(=O)[C@H](Cc2c[nH]c3ccccc23)NC(=O)[C@H]2CCCCN2C(=O)[C@H](Cc2ccc(O)cc2)NC(=O)[C@H](Cc2ccccc2)N(C)C(=O)[C@H](C(C)C)NC(=O)[C@H](CC(=O)O)NC(=O)[C@H]2CCCN2C(=O)[C@H](C)N(C)C(=O)[C@H](Cc2ccc(F)cc2)N(C)C(=O)[C@H](Cc2ccccc2)NC(=O)CSC[C@@H](C(=O)NCC(N)=O)NC1=O [Example 10543] ({CH2CO}-F[NMePhe(4-F)][NMeA][dP]DV[NMeF]Y[dPip]WYLCG-NH2; thioether N-13)
